Legend:
Assay type in all cases: biochemical
[1] = molecular target: JAK1-JH1JH2 (Homo sapiens (Human), UniProt P23458); assay: Enzymatic inhibition assay (RapidFire HTMS), JAK1; details: 12.5 μM ATP, 200 μM substrate; read-out: JAK1-JH2JH1 IC50
Method in brief: (§1)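 Quenched with 0.5% TFA plus internal-standard peptide; phosphorylated product quantified by RapidFire C4 SPE–ESI-MS, 11-point 1:3 or 1:4 dilutions in duplicate.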

[2] = molecular target: JAK2-JH1JH2 (Homo sapiens (Human), UniProt O60674); assay: Enzymatic inhibition assay (RapidFire HTMS), JAK2; details: 30 μM ATP, 40 μM substrate
Method in brief: as §1

[3] = molecular target: JAK3-JH1JH2 (Homo sapiens (Human), UniProt P52333); assay: Enzymatic inhibition assay (RapidFire HTMS), JAK3; details: 150 μM ATP, 40 μM substrate
Method in brief: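 JAK3 JH1JH2 reaction incubated 45 min at 25 °C, then quenched with 0.5% TFA containing 0.15 μM internal standard peptide. Phosphopeptide product measured by RapidFire C4 SPE–ESI MS (positive mode); inhibition from product decrease versus uninhibited enzyme, 11-point 1:3 or 1:4 dilutions in duplicate.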

[4] = molecular target: Tyk2-JH1JH2 (Homo sapiens (Human), UniProt P29597, C1142A/C936A); assay: Enzymatic inhibition assay (RapidFire HTMS), Tyk2; details: 50 μM ATP, 200 μM substrate
Method in brief: as §1

Sequence of JAK1-JH1JH2 (P23458 574-1154): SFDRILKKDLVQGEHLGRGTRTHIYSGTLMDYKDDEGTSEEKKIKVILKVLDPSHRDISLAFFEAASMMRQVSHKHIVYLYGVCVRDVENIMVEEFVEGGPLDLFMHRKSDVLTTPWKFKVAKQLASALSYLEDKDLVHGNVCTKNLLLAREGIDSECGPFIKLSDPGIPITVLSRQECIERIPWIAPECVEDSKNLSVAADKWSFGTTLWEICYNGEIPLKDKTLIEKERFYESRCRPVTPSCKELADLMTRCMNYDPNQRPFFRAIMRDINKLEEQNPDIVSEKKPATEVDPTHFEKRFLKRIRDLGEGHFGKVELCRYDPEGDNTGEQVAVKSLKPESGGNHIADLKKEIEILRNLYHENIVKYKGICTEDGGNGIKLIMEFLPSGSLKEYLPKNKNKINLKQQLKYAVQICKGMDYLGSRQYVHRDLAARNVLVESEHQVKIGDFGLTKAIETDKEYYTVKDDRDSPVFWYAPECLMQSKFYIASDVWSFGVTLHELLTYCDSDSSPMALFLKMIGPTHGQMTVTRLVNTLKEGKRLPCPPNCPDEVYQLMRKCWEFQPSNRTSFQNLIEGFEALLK
Sequence of JAK3-JH1JH2 (P52333 512-1124): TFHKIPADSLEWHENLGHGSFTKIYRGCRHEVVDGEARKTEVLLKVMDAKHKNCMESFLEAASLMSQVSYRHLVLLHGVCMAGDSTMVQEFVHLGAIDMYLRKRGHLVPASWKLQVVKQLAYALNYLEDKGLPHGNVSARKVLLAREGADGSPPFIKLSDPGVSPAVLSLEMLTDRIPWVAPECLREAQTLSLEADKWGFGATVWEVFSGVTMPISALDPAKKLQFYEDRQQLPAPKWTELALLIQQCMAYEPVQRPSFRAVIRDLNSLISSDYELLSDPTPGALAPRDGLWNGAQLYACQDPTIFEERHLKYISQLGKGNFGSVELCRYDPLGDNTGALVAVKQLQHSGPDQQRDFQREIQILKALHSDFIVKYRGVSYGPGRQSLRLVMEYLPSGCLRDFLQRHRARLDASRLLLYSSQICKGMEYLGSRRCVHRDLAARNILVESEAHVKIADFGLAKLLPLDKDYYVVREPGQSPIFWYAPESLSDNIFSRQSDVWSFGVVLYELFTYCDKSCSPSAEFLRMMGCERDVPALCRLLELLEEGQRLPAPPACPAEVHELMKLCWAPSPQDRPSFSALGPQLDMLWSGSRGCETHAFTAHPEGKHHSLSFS
Sequence of Tyk2-JH1JH2 (P29597 580-1182 C936A/C1142A): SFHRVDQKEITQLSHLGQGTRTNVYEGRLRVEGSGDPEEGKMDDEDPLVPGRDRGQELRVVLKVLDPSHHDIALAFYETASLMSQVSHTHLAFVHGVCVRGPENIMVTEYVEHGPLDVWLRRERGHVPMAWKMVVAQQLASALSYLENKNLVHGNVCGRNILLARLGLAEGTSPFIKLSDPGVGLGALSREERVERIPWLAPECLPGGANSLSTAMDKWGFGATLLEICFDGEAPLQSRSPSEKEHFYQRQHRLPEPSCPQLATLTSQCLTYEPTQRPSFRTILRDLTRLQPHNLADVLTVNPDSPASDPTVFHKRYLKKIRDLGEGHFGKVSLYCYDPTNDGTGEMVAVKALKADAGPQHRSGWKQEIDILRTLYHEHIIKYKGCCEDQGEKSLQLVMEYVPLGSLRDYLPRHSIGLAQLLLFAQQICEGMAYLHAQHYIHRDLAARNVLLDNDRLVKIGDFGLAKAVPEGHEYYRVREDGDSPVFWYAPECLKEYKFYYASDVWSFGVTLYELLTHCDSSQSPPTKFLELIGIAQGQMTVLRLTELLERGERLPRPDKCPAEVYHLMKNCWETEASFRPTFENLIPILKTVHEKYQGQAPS
Sequence of JAK2-JH1JH2 (O60674 532-1132): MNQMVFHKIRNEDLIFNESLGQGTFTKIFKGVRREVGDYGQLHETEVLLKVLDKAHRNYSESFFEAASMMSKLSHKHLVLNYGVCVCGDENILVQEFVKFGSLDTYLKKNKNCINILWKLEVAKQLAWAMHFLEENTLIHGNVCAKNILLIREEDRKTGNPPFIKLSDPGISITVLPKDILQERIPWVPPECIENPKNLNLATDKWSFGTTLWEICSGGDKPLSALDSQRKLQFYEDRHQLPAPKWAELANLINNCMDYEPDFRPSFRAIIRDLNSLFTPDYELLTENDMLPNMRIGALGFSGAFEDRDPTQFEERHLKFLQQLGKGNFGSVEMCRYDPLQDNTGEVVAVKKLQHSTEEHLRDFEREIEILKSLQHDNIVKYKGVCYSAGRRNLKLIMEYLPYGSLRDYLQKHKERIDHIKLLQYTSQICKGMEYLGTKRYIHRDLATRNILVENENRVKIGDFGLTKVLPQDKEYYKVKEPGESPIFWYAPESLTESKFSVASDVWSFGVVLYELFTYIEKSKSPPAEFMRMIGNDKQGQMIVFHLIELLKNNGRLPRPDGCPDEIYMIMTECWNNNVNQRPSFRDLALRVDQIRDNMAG

IC50 [1] [nM] | IC50 [2] [nM] | IC50 [3] [nM] | IC50 [4] [nM] | Structure (SMILES)
0.3 | 2.2 | 57.3 | 19.1 | N#CC[C@H]1CC[C@H](n2c(-c3nn[nH]n3)nc3cnc4[nH]ccc4c32)CC1 [Ex. 63, 2-((1r,4r)-4-(2-(2H-Tetrazol-5-yl)imidazo[4,5-d]pyrrolo[2,3-b]pyridin-1(6H)-yl)cyclohexyl)acetonitrile]
0.3 | 5.6 | 51.4 | 5.7 | N#CC[C@H]1CC[C@H](n2c(CC(=O)Nc3cn[nH]c3)nc3cnc4[nH]ccc4c32)CC1 [Ex. 64, 2-(1-((1r,4r)-4-(Cyanomethyl)cyclohexyl)-1,6-dihydroimidazo[4,5-d]pyrrolo[2,3-b]pyridin-2-yl)-N-(1H-pyrazol-4-yl)acetamide]
0.3 | 7 | 81.5 | 11.7 | CC1(C)CCC(NC(=O)Cc2nc3cnc4[nH]ccc4c3n2[C@H]2CC[C@H](CC#N)CC2)CC1 [Ex. 65, 2-(1-((1r,4r)-4-(Cyanomethyl)cyclohexyl)-1,6-dihydroimidazo[4,5-d]pyrrolo[2,3-b]pyridin-2-yl)-N-(4,4-dimethylcyclohexyl)acetamide]
0.3 | 2.5 | 18.9 | 2.8 | CN1CCC(NC(=O)Cc2nc3cnc4[nH]ccc4c3n2[C@H]2CC[C@H](CC#N)CC2)CC1 [Ex. 66, 2-(1-((1r,4r)-4-(Cyanomethyl)cyclohexyl)-1,6-dihydroimidazo[4,5-d]pyrrolo[2,3-b]pyridin-2-yl)-N-(1-methylpiperidin-4-yl)acetamide]
0.3 | 12.3 | 121 | 3.8 | N#CC[C@H]1CC[C@H](n2c(CC(=O)N3CCS(=O)(=O)CC3)nc3cnc4[nH]ccc4c32)CC1 [Ex. 67, 2-((1r,4r)-4-(2-(2-(1,1-Dioxidothiomorpholino)-2-oxoethyl)imidazo[4,5-d]pyrrolo[2,3-b]pyridin-1(6H)-yl)cyclohexyl)acetonitrile]
0.3 | 8.2 | 180 | 13.3 | N#CC[C@H]1CC[C@H](n2c(CC(=O)NCc3ccc(CO)cc3)nc3cnc4[nH]ccc4c32)CC1 [Ex. 68, 2-(1-((1r,4r)-4-(Cyanomethyl)cyclohexyl)-1,6-dihydroimidazo[4,5-d]pyrrolo[2,3-b]pyridin-2-yl)-N-(4-(hydroxymethyl)benzyl)acetamide]
0.2 | 3.4 | 54.2 | 3.3 | COC(C)(C)CNC(=O)Cc1nc2cnc3[nH]ccc3c2n1[C@H]1CC[C@H](CC#N)CC1 [Ex. 71, 2-(1-((1r,4r)-4-(Cyanomethyl)cyclohexyl)-1,6-dihydroimidazo[4,5-d]pyrrolo[2,3-b]pyridin-2-yl)-N-(2-methoxy-2-methylpropyl)acetamide]
0.4 | 5.2 | 181 | 27.2 | COCC/C(N)=N/OCc1nc2cnc3[nH]ccc3c2n1[C@H]1CC[C@H](CC#N)CC1 [Ex. 72, (Z*)—N-((1-((1r,4r)-4-(Cyanomethyl)cyclohexyl)-1,6-dihydroimidazo[4,5-d]pyrrolo[2,3-b]pyridin-2-yl)methoxy)-3-methoxypropanimidamide]
0.4 | 19.9 | 199 | 6.3 | N#CC[C@H]1CC[C@H](n2c(CC(=O)N3CCC(CO)CC3)nc3cnc4[nH]ccc4c32)CC1 [Ex. 73, 2-((1r,4r)-4-(2-(2-(4-(Hydroxymethyl)piperidin-1-yl)-2-oxoethyl)imidazo[4,5-d]pyrrolo[2,3-b]pyridin-1(6H)-yl)cyclohexyl)acetonitrile]
0.4 | 3.4 | 62.3 | 9.2 | CC1CC(C)CC(NC(=O)Cc2nc3cnc4[nH]ccc4c3n2[C@H]2CC[C@H](CC#N)CC2)C1 (some centres unmarked) [Ex. 75, 2-(1-((1r,4r)-4-(Cyanomethyl)cyclohexyl)-1,6-dihydroimidazo[4,5-d]pyrrolo[2,3-b]pyridin-2-yl)-N-(3,5-dimethylcyclohexyl)acetamide]
0.4 | 23.6 | 1210 | 16.8 | N#CC[C@H]1CC[C@H](n2c(C3CCN(c4ccc(C#N)cc4)CC3)nc3cnc4[nH]ccc4c32)CC1 [Ex. 76, 4-(4-(1-((1r,4r)-4-(Cyanomethyl)cyclohexyl)-1,6-dihydroimidazo[4,5-d]pyrrolo[2,3-b]pyridin-2-yl)piperidin-1-yl)benzonitrile]
0.4 | 39.4 | 1910 | 22.3 | N#CC[C@H]1CC[C@H](n2c(CNS(=O)(=O)c3ccccc3)nc3cnc4[nH]ccc4c32)CC1 [Ex. 77, N-((1-((1r,4r)-4-(Cyanomethyl)cyclohexyl)-1,6-dihydroimidazo[4,5-d]pyrrolo[2,3-b]pyridin-2-yl)methyl)benzenesulfonamide]
0.4 | 11.2 | 69.4 | 13.4 | N#CC[C@H]1CC[C@H](n2c(CC(=O)NC3CC4CCC3C4)nc3cnc4[nH]ccc4c32)CC1 (stereo partly drawn) [Ex. 78, N-((1S,4R)-Bicyclo[2.2.1]heptan-2-yl)-2-(1-((1r,4r)-4-(cyanomethyl)cyclohexyl)-1,6-dihydroimidazo[4,5-d]pyrrolo[2,3-b]pyridin-2-yl)acetamide]
0.4 | 10.6 | 223 | 13.3 | N#CC[C@H]1CC[C@H](n2c(CC(=O)NCc3ccc(OC(F)F)cc3)nc3cnc4[nH]ccc4c32)CC1 [Ex. 79, 2-(1-((1r,4r)-4-(cyanomethyl)cyclohexyl)-1,6-dihydroimidazo[4,5-d]pyrrolo[2,3-b]pyridin-2-yl)-N-(4-(difluoromethoxy)benzyl)acetamide]
0.4 | 2.1 | 89.7 | 4.1 | N#CC[C@H]1CC[C@H](n2c(C(=O)NCC3(O)COC3)nc3cnc4[nH]ccc4c32)CC1 [Ex. 80, 1-((1r,4r)-4-(Cyanomethyl)cyclohexyl)-N-((3-hydroxyoxetan-3-yl)methyl)-1,6-dihydroimidazo[4,5-d]pyrrolo[2,3-b]pyridine-2-carboxamide]
0.4 | 3.7 | 117 | 6 | Cc1cc(-c2nc3cnc4[nH]ccc4c3n2[C@H]2CC[C@H](CC#N)CC2)[nH]n1 [Ex. 81, 2-((1r,4r)-4-(2-(3-Methyl-1H-pyrazol-5-yl)imidazo[4,5-d]pyrrolo[2,3-b]pyridin-1(6H)-yl)cyclohexyl)acetonitrile]
0.4 | 13.6 | 189 | 5.2 | N#CC[C@H]1CC[C@H](n2c(CNC(=O)c3ccc(C#N)cc3)nc3cnc4[nH]ccc4c32)CC1 [Ex. 82, 4-Cyano-N-((1-((1r,4r)-4-(cyanomethyl)cyclohexyl)-1,6-dihydroimidazo[4,5-d]pyrrolo[2,3-b]pyridin-2-yl)methyl)benzamide]
0.4 | 4.1 | 30 | 9.4 | N#CC[C@H]1CC[C@H](n2c(CC(=O)NC3CCSCC3)nc3cnc4[nH]ccc4c32)CC1 [Ex. 83, 2-(1-((1r,4r)-4-(Cyanomethyl)cyclohexyl)-1,6-dihydroimidazo[4,5-d]pyrrolo[2,3-b]pyridin-2-yl)-N-(tetrahydro-2H-thiopyran-4-yl)acetamide]
0.4 | 27.1 | 1120 | 10.4 | CN1CCC(NC(=O)c2nc3cnc4[nH]ccc4c3n2[C@H]2CC[C@H](CC#N)CC2)CC1 [Ex. 84, 1-((1r,4r)-4-(Cyanomethyl)cyclohexyl)-N-(1-methylpiperidin-4-yl)-1,6-dihydroimidazo[4,5-d]pyrrolo[2,3-b]pyridine-2-carboxamide]
0.4 | 14 | 2270 | 2.6 | CC(=N)NCc1nc2cnc3[nH]ccc3c2n1[C@H]1CC[C@H](CC#N)CC1 [Ex. 86, N-((1-((1r,4r)-4-(Cyanomethyl)cyclohexyl)-1,6-dihydroimidazo[4,5-d]pyrrolo[2,3-b]pyridin-2-yl)methyl)acetimidamide]
< 0.4 | 27.7 | 274 | 10.3 | N#CC[C@H]1CC[C@H](n2c(CC(=O)N3CCC(Cc4ccccc4)CC3)nc3cnc4[nH]ccc4c32)CC1 [Ex. 87, 2-((1r,4r)-4-(2-(2-(4-Benzylpiperidin-1-yl)-2-oxoethyl)imidazo[4,5-d]pyrrolo[2,3-b]pyridin-1(6H)-yl)cyclohexyl)acetonitrile]
0.4 | 3.4 | 60.6 | 18 | CNc1nccc(-c2nc3cnc4[nH]ccc4c3n2[C@H]2CC[C@H](CC#N)CC2)n1 [Ex. 89, 2-((1r,4r)-4-(2-(2-(Methylamino)pyrimidin-4-yl)imidazo[4,5-d]pyrrolo[2,3-b]pyridin-1(6H)-yl)cyclohexyl)acetonitrile]
< 4 | 8.1 | 85 | ~2.4 | N#CC[C@H]1CC[C@H](n2c(CC(=O)N3CCCCC3)nc3cnc4[nH]ccc4c32)CC1 [Ex. 90, 2-((1r,4r)-4-(2-(2-Oxo-2-(piperidin-1-yl)ethyl)imidazo[4,5-d]pyrrolo[2,3-b]pyridin-1(6H)-yl)cyclohexyl)acetonitrile]
